Data set [1] deals with healthy subjects. Nature of the data set: Biomarkers of liver injury in residual plasma PK samples (miRNA122, total and fractionated bile acids). The format is in vivo, human. The settings on record: 300 mg BID. How it is done: Methodology for the following in vitro assays and biomarker determinations were as follows: THLE/HepG2 72 hour cytotoxicity assays based on ATP depletion;14 mitochondrial functional assessment based on state 3/4 respiration determination in the presence of glutamate/malate15, 16 or fatty acid oxidation inhibition using palmitate;17 BSEP inhibition in vesicles using tritium labeled taurocholic acid (TCA);18 human hepatocyte imaging assay determination of cell loss, mitochondrial membrane permeability, glutathione content, and production of reactive oxygen species;19 miRNA‐122 determination using QuantiGene 2.0 miRNA;20 human multidrug resistance protein 3 inhibition/activation (MDR3, encoded by ABCB4) was determined at Biotranex based on biotransformation of d 9‐choline to d 9‐phosphatidylcholine in human hepatocytes;21 and fractionated bile acid determinations were conducted by LC‐MS/MS methodology.22 These various assays have been published in detail and used by us in previous investigative works.2, 3, 21 Examination of human sodium/taurocholate cotransporting polypeptide (NTCP, encoded by SLC10A1) was determined based on uptake of tritium labeled TCA in CHO cells and human multidrug resistance‐associated protein 3/4 (MRP3/4, encoded by ABCC3/4) transporter inhibition in vesicles obtained from HEK293 cells using tritium labeled estradiol 17 β‐D‐glucuronide and dehydroepiandrosterone sulfate as substrates, respectively.
Three of eight treated healthy subjects consented for additional analyses of residual plasma PK samples for biomarkers of liver injury (e.g., miRNA122, total, and fractionated bile acids).

Data set [2] has as its system cynomolgus monkeys. Briefly: 9-Month Oral Toxicity Study in Cynomolgus Monkeys. The class given is in vivo, cynomolgus monkey. How it is done:
(§1) A 28-day nasogastric toxicity study was conducted in cynomolgus monkeys at up to 100 mg/kg/day and a 9-month oral toxicity study with a 3-month interim sacrifice was conducted in cynomolgus monkeys at up to 100 mg/kg/day.

The nature of data set [3]: 9-Month Oral Toxicity Study in Cynomolgus Monkeys. The conditions noted are these: cynomolgus monkey, plasma, oral, 100 mg/kg/day. The class given is in vivo, cynomolgus monkey. Here is the method:
as §1

Data set [4] is described as follows: 7-Day Oral Toxicity Study in Rats (twice daily dosing, GLP). The format is in vivo. The settings on record: rat, in vivo, Day 7, 400 mg/kg/day.
Data set [5] deals with Sprague-Dawley rats. Described as above. The class given is in vivo.
Setting [6] is: 100, 200, and 400 mg/kg/day, 7 days.
Where [7] appears, read: twice daily for 7 days, up to 400 mg/kg/day.

On to `O=C(Cc1ccc(F)cc1)Nn1c(C2CC2)nc2cc(F)ccc2c1=O` [PF‐04895162, N‐(2‐cyclopropyl‐7‐fluoro‐4‐oxoquinazolin‐3(4H)‐yl)‐2‐(4‐fluorophenyl)ethanamide], for which, in data set [1] (Period 3), the “plasma miRNA122, Subject 8” value is recorded as “elevated (>ULN) by Day 5”. Moreover, the “fasting total bile acid levels of treated subjects” value in data set [1] (Period 3, normal range <10 μmol/L) is “within the normal range”. Also, in data set [1] (Day 7, AUC 0-12 h), the “hydrophobicity index of serum bile acids, Subject 6” value turned out to be 0.47; the “hydrophobicity index of serum bile acids, Subject 8” value is 0.40; the “hydrophobicity index of serum bile acids, Subject 10” value came out at 0.45. Moreover, the “hematology, coagulation, clinical chemistry, macroscopic and microscopic pathology” value in data set [2] (9 months, up to 100 mg/kg/day) is reported as “No effect of treatment”. Further, the “body weights, body temperatures, hematology, coagulation, clinical chemistry, ophthalmoscopic, electrocardiographic examinations” value in data set [2] (10, 30 and 100 mg/kg/day) is “No effect of treatment”. Moreover, in data set [2] (males at 30 and 100 mg/kg/day, females at 100 mg/kg/day, after 9 months), the liver weights result was “increases in liver weights”. The mortality result in data set [2] (one female at 100 mg/kg/day) was “found dead on Day 45”. Further, the clinical findings result in data set [2] (sporadically in a few males and females at 100 mg/kg/day) was “Gross tremors and distended abdomens”. The Cmax in data set [3] (both sexes, after 9 months, males and females, read-out: total Cmax) is approximately 29000 ng/mL. Also, the Cmax in data set [3] (studies >1 month in duration, read-out: total Cmax concentrations in the monkey) stood at 81.6 µM. For the same compound, the Cmax in data set [4] (female, read-out: Total Cmax (mean), female rats) was 10300 ng/mL. For the same compound, the Cmax in data set [4] (male, read-out: Total Cmax (mean), male rats) turned out to be 7920 ng/mL. Also, in data set [5] (setting [6]), the “Clinical findings and body temperature” value is “test article-induced hypothermic condition”; the hematology parameters result is recorded as “no adverse test article-related effects”; the mortality entry is listed as “All main study animals survived to study termination”. The “body weight and food consumption” value in data set [5] (treated males and females) was “Decreases in body weight and food consumption”. Also, in data set [5] (setting [7]), the ALT result is “did not reproduce ALT findings” and the liver weight entry is recorded as “increased liver weight in female rats”.

These data come from publication PMC6370995, “Phase I study of PF‐04895162, a Kv7 channel opener, reveals unexpected hepatotoxicity in healthy subjects, but not rats or monkeys: clinical evidence of disrupted bile acid homeostasis” (Pharmacology Research & Perspectives, 2019).
